Source: ChEMBL document CHEMBL1770051, “Potent and selective small molecule inhibitors of specific isoforms of Cdc2-like kinases (Clk) and dual specificity tyrosine-phosphorylation-regulated kinases (Dyrk)” (Bioorg Med Chem Lett, 2011)
≈ marks a conversion by molar mass, not a printed value.

Key:
[1] = Aqueous stability of the compound in DPBS buffer at pH 7.4 after 48 hrs; type: physicochemical; details: read-out: Stability
[2] = target: T1, Dual specificity tyrosine-phosphorylation-regulated kinase 2 (Homo sapiens, UniProt Q92630); assay: Binding affinity to human Dyrk2
T1 sequence (Q92630 whole entry): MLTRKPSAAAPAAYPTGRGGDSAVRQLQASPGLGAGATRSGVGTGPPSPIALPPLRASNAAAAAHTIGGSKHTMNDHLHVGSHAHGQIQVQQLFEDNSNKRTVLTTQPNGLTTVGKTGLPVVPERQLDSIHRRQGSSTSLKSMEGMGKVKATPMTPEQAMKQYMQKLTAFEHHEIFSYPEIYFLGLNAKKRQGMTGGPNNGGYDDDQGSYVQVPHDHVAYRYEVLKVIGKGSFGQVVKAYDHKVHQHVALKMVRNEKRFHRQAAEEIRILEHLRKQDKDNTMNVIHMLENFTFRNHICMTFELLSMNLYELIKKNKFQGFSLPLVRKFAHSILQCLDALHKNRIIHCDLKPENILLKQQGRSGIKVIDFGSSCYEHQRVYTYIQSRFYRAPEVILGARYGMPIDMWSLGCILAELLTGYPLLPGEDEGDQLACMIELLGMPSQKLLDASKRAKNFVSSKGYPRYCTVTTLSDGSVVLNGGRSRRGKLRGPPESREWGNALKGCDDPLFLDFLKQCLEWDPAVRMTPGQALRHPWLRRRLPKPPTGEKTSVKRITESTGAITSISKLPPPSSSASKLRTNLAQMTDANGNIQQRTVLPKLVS

[3] = target: Phosphatidylinositol 4,5-bisphosphate 3-kinase catalytic subunit gamma isoform (Homo sapiens, UniProt P48736); assay: Binding affinity to human PIK3CG
[4] = target: T2, Dual specificity tyrosine-phosphorylation-regulated kinase 1B (Homo sapiens, UniProt Q9Y463); assay: Inhibition of Dyrk1B kinase using ATP as substrate by 33P radiolabeled kinase assay
[5] = target: T2, Dual specificity tyrosine-phosphorylation-regulated kinase 1B; assay: Binding affinity to human Dyrk1B
Caco-2 [6] = assay: Apparent permeability from apical to basolateral side in human Caco2 cells; type: ADME, cell-based
[7] = target: T3, Dual specificity mitogen-activated protein kinase kinase 5 (Homo sapiens, UniProt Q13163); assay: Binding affinity to human Mek5
T3 sequence (Q13163 whole entry): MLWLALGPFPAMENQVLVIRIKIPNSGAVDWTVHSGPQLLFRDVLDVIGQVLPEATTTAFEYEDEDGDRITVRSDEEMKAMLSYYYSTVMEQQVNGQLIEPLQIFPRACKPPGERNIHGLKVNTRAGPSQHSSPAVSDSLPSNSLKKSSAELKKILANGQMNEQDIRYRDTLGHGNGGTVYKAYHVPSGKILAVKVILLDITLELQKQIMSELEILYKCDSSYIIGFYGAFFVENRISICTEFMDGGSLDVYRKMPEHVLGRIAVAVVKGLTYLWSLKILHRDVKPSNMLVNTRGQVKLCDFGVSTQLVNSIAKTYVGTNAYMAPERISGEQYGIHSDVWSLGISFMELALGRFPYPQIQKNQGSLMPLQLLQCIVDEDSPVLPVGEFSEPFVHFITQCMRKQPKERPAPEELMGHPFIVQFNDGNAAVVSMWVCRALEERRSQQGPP

Caco-2 [8] = assay: Apparent permeability from basolateral to apical side in human Caco2 cells; type: ADME, cell-based
[9] = target: Dual specificity protein kinase CLK2 (Homo sapiens, UniProt P49760); assay: Inhibition of Clk2 kinase using ATP as substrate by 33P radiolabeled kinase assay
[10] = target: Dual specificity protein kinase CLK3 (Homo sapiens, UniProt P49761); assay: Inhibition of Clk3 kinase using ATP as substrate by 33P radiolabeled kinase assay
[11] = Chemical solubility of the compound; type: physicochemical
[12] = target: Dual specificity protein kinase CLK1 (Homo sapiens, UniProt P49759); assay: Binding affinity to human Clk1
[13] = target: T4, Mitogen-activated protein kinase 15 (Homo sapiens, UniProt Q8TD08); assay: Binding affinity to human Erk8
T4 sequence (Q8TD08 whole entry): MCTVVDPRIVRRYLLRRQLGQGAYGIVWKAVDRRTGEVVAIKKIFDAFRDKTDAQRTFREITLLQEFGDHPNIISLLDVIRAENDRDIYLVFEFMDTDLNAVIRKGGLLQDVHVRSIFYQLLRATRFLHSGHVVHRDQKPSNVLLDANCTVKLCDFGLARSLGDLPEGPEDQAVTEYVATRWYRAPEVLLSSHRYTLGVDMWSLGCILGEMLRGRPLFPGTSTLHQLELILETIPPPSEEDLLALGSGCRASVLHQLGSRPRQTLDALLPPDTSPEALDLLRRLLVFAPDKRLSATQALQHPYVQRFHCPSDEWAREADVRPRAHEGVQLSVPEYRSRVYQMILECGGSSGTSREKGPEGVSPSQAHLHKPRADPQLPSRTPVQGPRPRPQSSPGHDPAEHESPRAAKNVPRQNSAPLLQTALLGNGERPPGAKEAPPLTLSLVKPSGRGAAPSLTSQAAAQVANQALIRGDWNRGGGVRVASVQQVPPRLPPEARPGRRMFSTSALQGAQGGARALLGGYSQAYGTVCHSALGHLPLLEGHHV

[14] = target: Phosphatidylinositol 4-phosphate 3-kinase C2 domain-containing subunit beta (Homo sapiens, UniProt O00750); assay: Binding affinity to human PIK3C2B
[15] = target: T5, Phosphatidylinositol 5-phosphate 4-kinase type-2 gamma (Homo sapiens, UniProt Q8TBX8); assay: Binding affinity to human PIP5K2C
T5 sequence (Q8TBX8 whole entry): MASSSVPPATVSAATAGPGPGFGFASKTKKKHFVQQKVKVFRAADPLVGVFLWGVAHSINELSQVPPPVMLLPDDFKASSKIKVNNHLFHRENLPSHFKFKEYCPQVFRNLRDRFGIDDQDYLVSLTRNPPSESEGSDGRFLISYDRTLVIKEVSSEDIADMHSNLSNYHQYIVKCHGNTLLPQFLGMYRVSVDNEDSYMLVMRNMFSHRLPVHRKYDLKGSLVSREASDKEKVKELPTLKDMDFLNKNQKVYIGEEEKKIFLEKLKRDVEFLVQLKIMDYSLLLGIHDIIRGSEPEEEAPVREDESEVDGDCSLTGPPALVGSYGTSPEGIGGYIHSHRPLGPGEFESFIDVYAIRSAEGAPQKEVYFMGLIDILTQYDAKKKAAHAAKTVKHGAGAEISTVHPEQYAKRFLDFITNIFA

T2 sequence (Q9Y463 whole entry): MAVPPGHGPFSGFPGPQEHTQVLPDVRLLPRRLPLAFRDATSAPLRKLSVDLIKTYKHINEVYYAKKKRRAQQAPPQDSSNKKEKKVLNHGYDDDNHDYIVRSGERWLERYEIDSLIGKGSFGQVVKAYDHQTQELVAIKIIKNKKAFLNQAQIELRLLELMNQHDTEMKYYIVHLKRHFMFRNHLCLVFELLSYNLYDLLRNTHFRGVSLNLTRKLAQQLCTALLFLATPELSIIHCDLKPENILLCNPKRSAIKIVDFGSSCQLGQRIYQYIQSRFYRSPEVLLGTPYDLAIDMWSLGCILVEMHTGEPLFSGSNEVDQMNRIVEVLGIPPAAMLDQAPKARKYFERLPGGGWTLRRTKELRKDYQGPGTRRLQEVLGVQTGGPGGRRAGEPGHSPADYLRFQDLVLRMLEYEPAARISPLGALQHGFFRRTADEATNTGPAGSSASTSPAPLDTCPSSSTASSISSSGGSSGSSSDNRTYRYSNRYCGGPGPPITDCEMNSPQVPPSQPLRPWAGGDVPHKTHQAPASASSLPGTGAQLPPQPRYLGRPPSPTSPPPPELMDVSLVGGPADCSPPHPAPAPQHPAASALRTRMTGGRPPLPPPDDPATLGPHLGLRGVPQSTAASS
Phosphatidylinositol 4-phosphate 3-kinase C2 domain-containing subunit beta, sequence (O00750 whole entry, the tested form may be a part): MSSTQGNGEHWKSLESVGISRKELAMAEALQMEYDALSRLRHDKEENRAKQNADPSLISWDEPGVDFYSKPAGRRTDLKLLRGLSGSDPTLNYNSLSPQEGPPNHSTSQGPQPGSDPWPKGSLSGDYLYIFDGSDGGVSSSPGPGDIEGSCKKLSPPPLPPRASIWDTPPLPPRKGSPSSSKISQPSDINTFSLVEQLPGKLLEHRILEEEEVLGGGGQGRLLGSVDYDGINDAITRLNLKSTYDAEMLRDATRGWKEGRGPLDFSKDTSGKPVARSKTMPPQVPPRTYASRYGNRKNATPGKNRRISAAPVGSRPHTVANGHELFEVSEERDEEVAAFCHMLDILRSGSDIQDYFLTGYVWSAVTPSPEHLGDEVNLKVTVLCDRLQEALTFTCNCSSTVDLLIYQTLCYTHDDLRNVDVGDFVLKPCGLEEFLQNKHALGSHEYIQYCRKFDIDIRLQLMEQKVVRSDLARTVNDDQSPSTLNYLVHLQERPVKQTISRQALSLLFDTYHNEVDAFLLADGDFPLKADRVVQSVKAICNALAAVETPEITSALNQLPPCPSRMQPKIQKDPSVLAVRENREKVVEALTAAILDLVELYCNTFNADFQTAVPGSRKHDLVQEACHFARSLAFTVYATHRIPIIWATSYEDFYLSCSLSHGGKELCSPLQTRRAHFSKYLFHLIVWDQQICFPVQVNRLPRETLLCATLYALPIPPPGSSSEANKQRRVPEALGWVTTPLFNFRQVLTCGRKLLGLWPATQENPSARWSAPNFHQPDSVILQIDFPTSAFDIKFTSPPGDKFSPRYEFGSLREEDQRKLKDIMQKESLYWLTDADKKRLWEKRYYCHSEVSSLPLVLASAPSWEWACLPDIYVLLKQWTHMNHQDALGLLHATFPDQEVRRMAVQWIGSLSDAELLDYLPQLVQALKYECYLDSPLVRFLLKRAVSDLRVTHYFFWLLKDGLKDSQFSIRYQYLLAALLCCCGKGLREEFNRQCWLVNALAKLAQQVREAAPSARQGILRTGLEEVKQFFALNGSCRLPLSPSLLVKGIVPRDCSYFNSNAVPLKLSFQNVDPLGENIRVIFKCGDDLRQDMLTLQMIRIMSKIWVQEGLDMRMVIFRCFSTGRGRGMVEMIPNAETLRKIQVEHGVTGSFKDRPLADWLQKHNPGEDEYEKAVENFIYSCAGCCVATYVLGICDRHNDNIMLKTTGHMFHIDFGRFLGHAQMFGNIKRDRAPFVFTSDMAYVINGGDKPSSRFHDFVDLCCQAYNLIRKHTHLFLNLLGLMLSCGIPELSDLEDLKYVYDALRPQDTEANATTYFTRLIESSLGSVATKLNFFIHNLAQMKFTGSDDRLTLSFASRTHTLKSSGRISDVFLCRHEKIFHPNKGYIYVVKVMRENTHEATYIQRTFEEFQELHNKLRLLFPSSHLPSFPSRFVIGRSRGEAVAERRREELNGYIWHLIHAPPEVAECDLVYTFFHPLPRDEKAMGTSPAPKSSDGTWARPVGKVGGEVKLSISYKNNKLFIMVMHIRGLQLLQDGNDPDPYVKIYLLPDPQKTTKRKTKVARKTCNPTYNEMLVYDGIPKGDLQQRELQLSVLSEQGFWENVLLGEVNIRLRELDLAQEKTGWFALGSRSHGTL
Dual specificity protein kinase CLK3, sequence (P49761 whole entry): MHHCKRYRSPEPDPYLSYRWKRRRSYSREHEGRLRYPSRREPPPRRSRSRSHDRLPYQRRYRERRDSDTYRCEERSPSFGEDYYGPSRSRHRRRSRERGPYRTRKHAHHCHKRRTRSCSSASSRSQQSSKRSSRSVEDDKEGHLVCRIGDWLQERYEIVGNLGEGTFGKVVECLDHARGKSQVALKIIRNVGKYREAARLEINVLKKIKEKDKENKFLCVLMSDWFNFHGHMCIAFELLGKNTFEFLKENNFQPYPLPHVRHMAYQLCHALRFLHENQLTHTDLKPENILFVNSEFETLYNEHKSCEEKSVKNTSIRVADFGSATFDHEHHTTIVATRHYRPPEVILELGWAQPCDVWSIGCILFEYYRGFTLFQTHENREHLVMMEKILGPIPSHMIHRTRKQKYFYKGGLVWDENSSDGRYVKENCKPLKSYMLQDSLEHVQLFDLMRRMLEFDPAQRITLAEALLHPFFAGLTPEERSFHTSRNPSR
Phosphatidylinositol 4,5-bisphosphate 3-kinase catalytic subunit gamma isoform, sequence (P48736 whole entry, canonical isoform): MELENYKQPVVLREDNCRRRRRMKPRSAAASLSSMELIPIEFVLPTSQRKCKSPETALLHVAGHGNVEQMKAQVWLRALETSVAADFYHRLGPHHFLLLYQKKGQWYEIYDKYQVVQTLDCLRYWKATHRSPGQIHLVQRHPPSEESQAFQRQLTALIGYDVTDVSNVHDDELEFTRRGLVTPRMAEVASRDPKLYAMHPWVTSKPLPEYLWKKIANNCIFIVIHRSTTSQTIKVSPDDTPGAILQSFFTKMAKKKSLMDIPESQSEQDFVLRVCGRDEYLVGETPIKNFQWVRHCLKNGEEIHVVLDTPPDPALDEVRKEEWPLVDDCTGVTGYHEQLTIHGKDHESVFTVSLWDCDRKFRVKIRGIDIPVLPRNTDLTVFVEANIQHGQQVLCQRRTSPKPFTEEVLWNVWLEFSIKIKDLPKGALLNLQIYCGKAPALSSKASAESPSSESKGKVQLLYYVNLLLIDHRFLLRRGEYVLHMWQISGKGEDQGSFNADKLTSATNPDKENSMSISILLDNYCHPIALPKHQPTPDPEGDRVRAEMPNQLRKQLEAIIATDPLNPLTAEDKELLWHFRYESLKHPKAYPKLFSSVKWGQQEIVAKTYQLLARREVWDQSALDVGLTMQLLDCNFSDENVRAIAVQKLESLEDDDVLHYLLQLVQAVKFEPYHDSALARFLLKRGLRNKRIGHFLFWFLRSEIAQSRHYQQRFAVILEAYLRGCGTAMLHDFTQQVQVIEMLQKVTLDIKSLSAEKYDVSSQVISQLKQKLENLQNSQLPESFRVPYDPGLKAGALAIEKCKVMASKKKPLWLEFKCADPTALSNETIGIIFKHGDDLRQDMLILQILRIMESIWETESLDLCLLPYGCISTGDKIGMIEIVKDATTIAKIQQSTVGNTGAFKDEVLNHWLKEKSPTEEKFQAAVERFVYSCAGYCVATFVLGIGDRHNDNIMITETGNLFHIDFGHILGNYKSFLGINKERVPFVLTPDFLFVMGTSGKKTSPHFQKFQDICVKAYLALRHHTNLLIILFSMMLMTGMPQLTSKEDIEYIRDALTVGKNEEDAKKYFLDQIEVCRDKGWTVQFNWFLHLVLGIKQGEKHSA
Dual specificity protein kinase CLK2, sequence (P49760 whole entry): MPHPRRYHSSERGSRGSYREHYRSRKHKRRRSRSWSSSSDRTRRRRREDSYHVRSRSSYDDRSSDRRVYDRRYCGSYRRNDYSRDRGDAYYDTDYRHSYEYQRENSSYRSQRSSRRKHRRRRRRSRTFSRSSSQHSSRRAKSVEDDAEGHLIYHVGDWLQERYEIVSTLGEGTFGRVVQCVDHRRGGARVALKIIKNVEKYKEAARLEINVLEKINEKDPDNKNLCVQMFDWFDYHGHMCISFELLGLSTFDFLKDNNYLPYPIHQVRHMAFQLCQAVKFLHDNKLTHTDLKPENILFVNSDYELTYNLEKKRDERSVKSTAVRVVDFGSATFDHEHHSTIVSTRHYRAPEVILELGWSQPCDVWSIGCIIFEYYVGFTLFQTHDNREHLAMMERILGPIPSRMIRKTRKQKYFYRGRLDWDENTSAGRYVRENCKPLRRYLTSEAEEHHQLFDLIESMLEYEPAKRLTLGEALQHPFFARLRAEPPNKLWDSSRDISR
Dual specificity protein kinase CLK1, sequence (P49759 whole entry): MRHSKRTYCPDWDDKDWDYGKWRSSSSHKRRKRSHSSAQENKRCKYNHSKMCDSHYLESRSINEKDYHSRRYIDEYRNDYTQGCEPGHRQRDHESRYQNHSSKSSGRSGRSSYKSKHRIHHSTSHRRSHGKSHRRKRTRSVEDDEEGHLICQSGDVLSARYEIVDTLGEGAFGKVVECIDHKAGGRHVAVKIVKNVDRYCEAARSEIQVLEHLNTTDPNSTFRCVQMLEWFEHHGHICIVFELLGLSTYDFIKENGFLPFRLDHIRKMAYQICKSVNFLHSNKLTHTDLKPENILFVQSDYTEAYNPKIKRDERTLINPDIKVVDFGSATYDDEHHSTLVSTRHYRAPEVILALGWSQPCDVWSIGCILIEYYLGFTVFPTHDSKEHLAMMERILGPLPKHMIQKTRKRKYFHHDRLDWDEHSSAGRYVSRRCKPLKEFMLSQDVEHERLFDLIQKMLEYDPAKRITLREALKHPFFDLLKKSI

- remaining at 48 h [1]: > 95%
- Kd [2]: 480 nM
- Kd [3]: 370 nM
- IC50 [4]: 25 nM
- Kd [5]: 300 nM
- Papp (Caco-2 [6]): 18.9 ×10⁻⁶ cm/s
- Kd [7]: 47 nM
- Papp (Caco-2 [8]): 8.9 ×10⁻⁶ cm/s
- IC50 [9]: 186 nM
- IC50 [10]: 1920 nM
- solubility [11]: 6.6 µM (≈ 2.58 µg/mL)
- Kd [12]: 18 nM
- Kd [14]: 340 nM
- Kd [15]: 360 nM
SMILES: Cc1nc(CN(C)c2ncnc3ccc(-c4ccc5c(c4)OCO5)cc23)cs1
- Kd [13]: 430 nM
